Measurements taken from patent US12583858B2 (Genentech, Inc., priority 2015, dated 2026).

Molecular target: T1, TDO2 (Homo sapiens, UniProt P48775)
T1 construct: decreased levels of NFK in SW48 cells (high TDO expressing cells)
Test: TDO2 cell assay (NFK GreenScreen, SW48 cells)
Assay type: cell-based
Conditions: SW48 cells (high TDO expressing), 200 uM tryptophan, 24 hours; Table 3; read-out: TDO2 Cell Fluor EC50

T1 sequence (P48775 whole entry): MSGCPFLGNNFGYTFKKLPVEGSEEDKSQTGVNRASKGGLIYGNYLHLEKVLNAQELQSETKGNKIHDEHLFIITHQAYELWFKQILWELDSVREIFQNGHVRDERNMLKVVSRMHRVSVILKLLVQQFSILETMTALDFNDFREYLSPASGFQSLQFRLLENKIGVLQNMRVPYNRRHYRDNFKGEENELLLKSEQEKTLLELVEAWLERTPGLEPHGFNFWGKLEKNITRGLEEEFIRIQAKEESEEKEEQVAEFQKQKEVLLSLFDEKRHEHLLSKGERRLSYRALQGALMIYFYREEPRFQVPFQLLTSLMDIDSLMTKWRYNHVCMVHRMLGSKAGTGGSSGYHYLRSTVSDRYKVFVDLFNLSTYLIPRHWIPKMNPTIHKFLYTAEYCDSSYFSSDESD

## O[C@@H]1[C@@H]([C@@H]2c3ccccc3-c3cncn32)CCCC1(F)F (single isomer, unassigned) [Example 106a]
  EC50: > 25 µM

## O[C@H]1[C@H]([C@H]2c3ccccc3-c3cncn32)CCCC1(F)F (single isomer, unassigned) [Example 106b]
  EC50: 0.17 µM

## O[C@H]1[C@H]([C@@H]2c3ccccc3-c3cncn32)CCCC1(F)F (single isomer, unassigned) [Example 106c]
  EC50: 8.1 µM

## O[C@@H]1[C@@H]([C@H]2c3ccccc3-c3cncn32)CCCC1(F)F (single isomer, unassigned) [Example 106d]
  EC50: 0.93 µM

## N#Cc1cnc2c(c1)CCC(C1c3ccccc3-c3cncn31)C2O (single isomer, unassigned) [Example 107a]
  EC50: 17 µM

## N#Cc1cnc2c(c1)CCC(C1c3ccccc3-c3cncn31)C2O (single isomer, unassigned) [Example 107b]
  EC50: > 25 µM

## N#Cc1cnc2c(c1)CCC(C1c3ccccc3-c3cncn31)C2O (single isomer, unassigned) [Example 107c]
  EC50: 21 µM

## N#Cc1cnc2c(c1)CCC(C1c3ccccc3-c3cncn31)C2O (single isomer, unassigned) [Example 107d]
  EC50: 2.4 µM

## N#Cc1cnc2c(c1)CCC(C1c3ccccc3-c3cncn31)C2O (single isomer, unassigned) [Example 107e]
  EC50: 23 µM

## N#Cc1cnc2c(c1)CCC(C1c3ccccc3-c3cncn31)C2O (single isomer, unassigned) [Example 107f]
  EC50: 0.42 µM

## N#Cc1cnc2c(c1)CCC(C1c3ccccc3-c3cncn31)C2O (single isomer, unassigned) [Example 107g]
  EC50: 0.87 µM

## N#Cc1cnc2c(c1)CC[C@H]([C@@H]1c3ccccc3-c3cncn31)[C@H]2O (single isomer, unassigned) [Example 107h]
  EC50: 0.16 µM

## CCS(=O)(=O)N1CC(O)(CC2c3ccccc3-c3cncn32)C1 (single isomer, unassigned) [Example 108a]
  EC50: 2.8 µM

## CCS(=O)(=O)N1CC(O)(CC2c3ccccc3-c3cncn32)C1 (single isomer, unassigned) [Example 108b]
  EC50: > 25 µM

## OC1C(C2c3ccc(F)cc3-c3cncn32)CC12CCOCC2 (single isomer, unassigned) [Example 109a]
  EC50: 0.62 µM

## OC1C(C2c3ccc(F)cc3-c3cncn32)CC12CCOCC2 (single isomer, unassigned) [Example 109b]
  EC50: 3.9 µM

## OC1C(C2c3ccc(F)cc3-c3cncn32)CC12CCOCC2 (single isomer, unassigned) [Example 109d]
  EC50: 3.7 µM

## OC1C(C2c3ccc(F)cc3-c3cncn32)CC12CCOCC2 (single isomer, unassigned) [Example 109e]
  EC50: 9.5 µM

## OC1C(C2c3ccc(F)cc3-c3cncn32)CC12CCOCC2 (single isomer, unassigned) [Example 109f]
  EC50: > 25 µM

## OC1C(C2c3ccc(F)cc3-c3cncn32)CC12CCOCC2 (single isomer, unassigned) [Example 109g]
  EC50: 0.15 µM

## OC1C(C2c3ccc(F)cc3-c3cncn32)CC12CCOCC2 (single isomer, unassigned) [Example 109h]
  EC50: > 25 µM

## Cc1ccc2c(c1)C(C1COCC1O)n1cncc1-2 (single isomer, unassigned) [Example 110a]
  EC50: 0.52 µM

## Cc1ccc2c(c1)C(C1COCC1O)n1cncc1-2 (single isomer, unassigned) [Example 110b]
  EC50: > 25 µM

## Cc1ccc2c(c1)C(C1COCC1O)n1cncc1-2 (single isomer, unassigned) [Example 110c]
  EC50: 3.9 µM

## Cc1ccc2c(c1)C(C1COCC1O)n1cncc1-2 (single isomer, unassigned) [Example 110d]
  EC50: > 25 µM

## Nc1ncc2c(n1)CCC(C1c3ccccc3-c3cncn31)C2O (single isomer, unassigned) [Example 111a]
  EC50: 0.54 µM

## Nc1ncc2c(n1)CCC(C1c3ccccc3-c3cncn31)C2O (single isomer, unassigned) [Example 111b]
  EC50: 0.12 µM

## Nc1ncc2c(n1)CCC(C1c3ccccc3-c3cncn31)C2O (single isomer, unassigned) [Example 111c]
  EC50: 7.8 µM

## Nc1ncc2c(n1)CCC(C1c3ccccc3-c3cncn31)C2O (single isomer, unassigned) [Example 111d]
  EC50: > 25 µM

## Nc1ncc2c(n1)CCC(C1c3ccccc3-c3cncn31)C2O (single isomer, unassigned) [Example 111e]
  EC50: 5.7 µM

## Nc1ncc2c(n1)CCC(C1c3ccccc3-c3cncn31)C2O (single isomer, unassigned) [Example 111f]
  EC50: > 25 µM

## Nc1ncc2c(n1)CCC(C1c3ccccc3-c3cncn31)C2O (single isomer, unassigned) [Example 111g]
  EC50: > 25 µM

## OC1c2cnncc2CCC1C1c2ccccc2-c2cncn21 (single isomer, unassigned) [Example 112a]
  EC50: > 25 µM

## OC1c2cnncc2CCC1C1c2ccccc2-c2cncn21 (single isomer, unassigned) [Example 112c]
  EC50: > 25 µM

## OC1c2cnncc2CCC1C1c2ccccc2-c2cncn21 (single isomer, unassigned) [Example 112d]
  EC50: 5.6 µM

## OC1c2cnncc2CCC1C1c2ccccc2-c2cncn21 (single isomer, unassigned) [Example 112e]
  EC50: > 25 µM

## OC1c2cnncc2CCC1C1c2ccccc2-c2cncn21 (single isomer, unassigned) [Example 112f]
  EC50: 3.8 µM

## OC1c2cnncc2CCC1C1c2ccccc2-c2cncn21 (single isomer, unassigned) [Example 112g]
  EC50: 0.27 µM

## OC1c2cnncc2CCC1C1c2ccccc2-c2cncn21 (single isomer, unassigned) [Example 112h]
  EC50: > 25 µM

## N#Cc1ccc2c(c1)C(O)C(C1c3ccccc3-c3cncn31)CC2 (single isomer, unassigned) [Example 113b]
  EC50: 5 µM

## N#Cc1ccc2c(c1)C(O)C(C1c3ccccc3-c3cncn31)CC2 (single isomer, unassigned) [Example 113c]
  EC50: 0.06 µM

## N#Cc1ccc2c(c1)C(O)C(C1c3ccccc3-c3cncn31)CC2 (single isomer, unassigned) [Example 113f]
  EC50: 0.17 µM

## N#Cc1ccc2c(c1)C(O)C(C1c3ccccc3-c3cncn31)CC2 (single isomer, unassigned) [Example 113g]
  EC50: 3.3 µM

## CCS(=O)(=O)N1CCC2(CC1)CC(C1c3ccccc3-c3cncn31)C2O (single isomer, unassigned) [Example 114a]
  EC50: 0.39 µM

## CCS(=O)(=O)N1CCC2(CC1)CC(C1c3ccccc3-c3cncn31)C2O (single isomer, unassigned) [Example 114c]
  EC50: 15 µM

## CCS(=O)(=O)N1CCC2(CC1)CC(C1c3ccccc3-c3cncn31)C2O (single isomer, unassigned) [Example 114d]
  EC50: 0.22 µM

## CCS(=O)(=O)N1CCC2(CC1)CC(C1c3ccccc3-c3cncn31)C2O (single isomer, unassigned) [Example 114e]
  EC50: 1.2 µM

## CCS(=O)(=O)N1CCC2(CC1)CC(C1c3ccccc3-c3cncn31)C2O (single isomer, unassigned) [Example 114f]
  EC50: 0.91 µM

## OC1CCCCCC1C1c2ccccc2-c2cncn21 (single isomer, unassigned) [Example 115a, 2-(5H-imidazo[5,1-a]isoindol-5-yl)cycloheptan-1-ol]
  EC50: 14 µM

## OC1CCCCCC1C1c2ccccc2-c2cncn21 (single isomer, unassigned) [Example 115b, 2-(5H-imidazo[5,1-a]isoindol-5-yl)cycloheptan-1-ol]
  EC50: 3.4 µM

## OC1CCCCCC1C1c2ccccc2-c2cncn21 (single isomer, unassigned) [Example 115c, 2-(5H-imidazo[5,1-a]isoindol-5-yl)cycloheptan-1-ol]
  EC50: 0.05 µM

## OC1CCCCCC1C1c2ccccc2-c2cncn21 (single isomer, unassigned) [Example 115d, 2-(5H-imidazo[5,1-a]isoindol-5-yl)cycloheptan-1-ol]
  EC50: 0.1 µM

## CS(=O)(=O)N1CCC(O)(C2c3ccccc3-c3cncn32)C1 (single isomer, unassigned) [Example 116a]
  EC50: > 25 µM

## CS(=O)(=O)N1CCC(O)(C2c3ccccc3-c3cncn32)C1 (single isomer, unassigned) [Example 116b]
  EC50: 2.5 µM

## CS(=O)(=O)N1CCC(O)(C2c3ccccc3-c3cncn32)C1 (single isomer, unassigned) [Example 116c]
  EC50: > 25 µM

## CS(=O)(=O)N1CCC(O)(C2c3ccccc3-c3cncn32)C1 (single isomer, unassigned) [Example 116d]
  EC50: 0.73 µM

## CS(=O)(=O)N1CCC(O)C(C2c3ccc(F)cc3-c3cncn32)C1 (single isomer, unassigned) [Example 118a]
  EC50: > 25 µM

## CS(=O)(=O)N1CCC(O)C(C2c3ccc(F)cc3-c3cncn32)C1 (single isomer, unassigned) [Example 118b]
  EC50: > 25 µM

## CS(=O)(=O)N1CCC(O)C(C2c3ccc(F)cc3-c3cncn32)C1 (single isomer, unassigned) [Example 118c]
  EC50: 13 µM

## CS(=O)(=O)N1CCC(O)C(C2c3ccc(F)cc3-c3cncn32)C1 (single isomer, unassigned) [Example 118d]
  EC50: > 25 µM

## CS(=O)(=O)N1CCC(C2c3ccc(F)cc3-c3cncn32)C(O)C1 (single isomer, unassigned) [Example 119a]
  EC50: > 25 µM

## CS(=O)(=O)N1CCC(C2c3ccc(F)cc3-c3cncn32)C(O)C1 (single isomer, unassigned) [Example 119b]
  EC50: 8.4 µM

## CS(=O)(=O)N1CCC(C2c3ccc(F)cc3-c3cncn32)C(O)C1 (single isomer, unassigned) [Example 119c]
  EC50: 0.22 µM

## O[C@@H]1COCC[C@H]1[C@@H]1c2c(F)cccc2-c2cncn21 (single isomer, unassigned) [Example 120c]
  EC50: 14 µM

## O[C@@H]1COCC[C@H]1[C@@H]1c2c(F)cccc2-c2cncn21 (single isomer, unassigned) [Example 120d]
  EC50: > 25 µM
